{
  "source": "patent US20040133936A1",
  "about": "“Enzyme” (priority 2000, published 2004)",
  "molecules": {"B1": {"name": "Pure aphid myrosinase: myrosinase enzyme purified to homogeneity from Brevicoryne brassicae (SEQ ID NO. 1) (protein, listed as Brevicoryne brassicae)", "chain": "MDYKFPKDFMFGTSTASYQIEGGWNEDGKGENIWDRLVHTSPEVIKDGTNGDIACDSYHKYKEDVAIIKDLNLKFYRFSISWARIAPSGVMNSLEPKGIAYYNNLINELIKNDIIPLVTMYHWDLPQYLQDLGGWVNPIMSDYFKEYARVLFTYFGDRVKWWITFNEPIAVCKGYSIKAYAPNLNLKTTGHYLAGHTQLIAHGKAYRLYEEMFKPTQNGKISISISGVFFMPKNAESDDDIETAERANQFERGWFGHPVYKGDYPPIMKKWVDQKSKEEGLPWSKLPKFTKDEIKLLKGTADFYALNHYSSRLVTFGSDPNPNFNPDASYVTSVDEAWLKPNETPYIIPVPEGLRKLLIWLKNEYGNPQLLITENGYGDDGQLDDFEKISYLKNYLNATLQAMYEDKCNVIGYTVWSLLDNFEWFYGYSIHFGLVKIDFNDPQRTRTKRESYTYFKNVVSTGKP"}},
  "key": {"[1]": {"system": "myrosinase from the mustard plant Brassica nigra", "conditions": "substrates 2-propenyl and 2-hydroxy-3-butenyl glucosinolate; cited from earlier work"}, "[2]": {"target": "T1, myrosinase from the cabbage aphid B. brassicae (Brevicoryne brassicae, UniProt Q95X01)", "T1 sequence (Q95X01 1-464)": "B1 chain", "conditions": "substrates 2-propenyl and 2-hydroxy-3-butenyl glucosinolate; cited from earlier work"}, "[3]": {"target": "T2, myrosinase from the cabbage aphid (Brevicoryne brassicae) (Brevicoryne brassicae, UniProt Q95X01)", "T2 construct": "The myrosinase from freeze-dried aphids was purified in five steps; from tissue; host or cells: whole freeze-dried Brevicoryne brassicae aphids", "T2 sequence (Q95X01 1-464)": "B1 chain", "test": "Kinetic studies of aphid myrosinase (glucose released by glucosinolate hydrolysis)", "type": "biochemical", "conditions": "for Km: substrate, read-out: apparent Km of the aphid myrosinase", "protocol": "(§1) An assay based on the determination of glucose released by the hydrolysis of 2-propenyl glucosinolate (sinigrin) by the aphid myrosinase was used routinely to determine enzyme activity during protein purification. GOD-Perid test reagents were purchased from Boehringer Mannheim.\n(§2) Enzyme solution and sinigrin (1.08 mM) in 500 μl of sodium citrate buffer (100 mM, pH 5.5) was incubated at 30° C. for 20 min. The reaction was stopped by addition of 40 μl 3M HCl (aq) and GOD-PERID reagent (2.5 ml) added to the reaction mixture and incubated for 15 min at 37° C. The optical density was read at 346 nm and the glucose concentration calculated from a calibration graph.\nThe present inventors have performed a number of kinetic studies on the myrosinase from the cabbage aphid (Brevicoryne brassicae) which they have characterised. […] Like the cabbage aphid, the turnip aphid (Lipaphis erysimi) myrosinase was not activated by ascorbate in the concentration range 0.1-20 mM. The KM for sinigrin is 0.42 mM for the white mustard (Sinapis alba) myrosinase."}, "plant myrosinase": {"system": "plant myrosinase", "conditions": "cited from earlier work"}, "[4]": {"system": "turnip aphid (Lipaphis erysimi) myrosinase", "test": "Ascorbate activation of turnip aphid myrosinase", "type": "biochemical", "conditions": "concentration range 0.1-20 mM"}, "[5]": {"target": "white mustard (Sinapis alba) myrosinase (Sinapis alba, UniProt P29736)", "sequence (P29736 whole entry)": "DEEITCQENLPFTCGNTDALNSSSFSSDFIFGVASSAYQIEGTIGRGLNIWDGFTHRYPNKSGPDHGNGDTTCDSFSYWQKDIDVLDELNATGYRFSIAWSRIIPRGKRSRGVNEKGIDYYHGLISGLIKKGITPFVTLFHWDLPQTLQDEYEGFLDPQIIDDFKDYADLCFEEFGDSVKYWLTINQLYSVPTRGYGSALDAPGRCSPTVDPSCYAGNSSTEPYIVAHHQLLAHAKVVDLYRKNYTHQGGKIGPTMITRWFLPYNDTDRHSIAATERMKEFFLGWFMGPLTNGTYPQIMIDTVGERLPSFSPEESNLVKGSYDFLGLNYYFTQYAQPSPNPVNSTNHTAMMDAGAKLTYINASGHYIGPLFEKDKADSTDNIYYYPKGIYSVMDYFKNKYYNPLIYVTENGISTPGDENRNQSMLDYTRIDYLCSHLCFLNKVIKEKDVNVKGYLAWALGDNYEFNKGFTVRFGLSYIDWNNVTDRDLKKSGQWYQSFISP", "test": "KM of white mustard myrosinase", "type": "biochemical", "conditions": "substrate"}, "[6]": {"target": "T3, native enzyme (myrosinase) from white mustard seed (Sinapis alba) (Sinapis alba, UniProt P29736)", "T3 construct": "the native enzyme from white mustard seed (Sinapis alba) has been crystallised; host or cells: white mustard seed", "T3 sequence (P29736 whole entry)": "as above", "conditions": "stable glycosyl-enzyme intermediate at the active site; cited from earlier work"}, "[7]": {"test": "Myrosinase micro assay (glucose released by hydrolysis of sinigrin)", "type": "biochemical", "conditions": "sinigrin 1.08 mM, pH 5.5, 30° C.", "protocol": "as §1\nas §2, with “ml) was” for “ml)”"}},
  "data": [
    {"molecule": "OC[C@H]1NC[C@H](O)[C@@H](O)[C@@H]1O", "note": "[DNJ, 1-deoxynojirimycin]", "values": [
      {"measurement": "inhibition of plant myrosinase", "setting": "[1]", "value": "not significantly"},
      {"measurement": "inhibition of aphid myrosinase", "setting": "[2]", "value": "inhibited"}
    ]},
    {"molecule": "OC[C@@H]1[C@@H](O)[C@H](O)[C@@H]2[C@@H](O)CCN21", "note": "[Alexine]", "values": [
      {"measurement": "inhibition of plant myrosinase", "setting": "[1]", "value": "not significantly"},
      {"measurement": "inhibition of aphid myrosinase", "setting": "[2]", "value": "inhibited"}
    ]},
    {"molecule": "O=C1O[C@H]([C@@H](O)CO)C(O)=C1O", "note": "[ascorbate, ascorbic acid]", "values": [
      {"measurement": "activation by ascorbate", "setting": "[3]; concentration range 0.1-20 mM", "value": "not activated"},
      {"measurement": "inhibition of plant myrosinases", "setting": "plant myrosinase; high concentrations", "value": "inhibited"},
      {"measurement": "activation of plant myrosinases", "setting": "plant myrosinase; low concentrations", "value": "activated"},
      {"measurement": "activation by ascorbate", "setting": "[4]", "value": "not activated"}
    ]},
    {"molecule": "C=CC/C(=N/OS(=O)(=O)O)S[C@@H]1O[C@H](CO)[C@@H](O)[C@H](O)[C@H]1O", "note": "[2-propenylglucosinolate]", "values": [
      {"measurement": "Km", "setting": "[3]", "value": 613, "unit": "µM"},
      {"measurement": "Km", "setting": "[5]", "value": 420, "unit": "µM"}
    ]},
    {"molecule": "OC[C@H]1NC[C@@H](O)[C@@H]1O", "note": "[AB1, 1,4-dideoxy-1,4-imino-D-arabinitol]", "values": [
      {"measurement": "inhibition of plant myrosinase", "setting": "[1]", "value": "not significantly"},
      {"measurement": "inhibition of aphid myrosinase", "setting": "[2]", "value": "inhibited"}
    ]},
    {"molecule": "O=C1O[C@H](CO)[C@@H](O)[C@H](O)[C@H]1O", "note": "[D-glucono-β-lactone]", "values": [
      {"measurement": "inhibition of plant myrosinase", "setting": "plant myrosinase", "value": "poor inhibitors"}
    ]},
    {"molecule": "O=S(=O)(O)ON=C(Cc1ccccc1)S[C@@H]1O[C@H](CO)[C@@H](O)[C@H](O)[C@H]1F", "note": "[2-deoxy-2-fluoroglucotropaeolin]", "values": [
      {"measurement": "Ki", "setting": "[3]", "value": "extremely low"},
      {"measurement": "type of inhibition", "setting": "[3]", "value": "competitively inhibited"},
      {"measurement": "inhibition of the enzyme", "setting": "[6]", "value": "potent inhibitor"}
    ]},
    {"molecule": "O=S(=O)(O)O/N=C(\\Cc1ccccc1)S[C@@H]1O[C@H](CO)[C@@H](O)[C@H](O)[C@H]1O", "note": "[benzyl glucosinolate]", "values": [
      {"measurement": "Km", "setting": "[3]", "value": 915, "unit": "µM"}
    ]},
    {"molecule": "OC[C@H]1N[C@H](CO)[C@@H](O)[C@@H]1O", "note": "[DMDP, (2R, 5R)-dihydroxymethyl-(3R,4R)-dihydroxypyrrolidine]", "values": [
      {"measurement": "inhibition of plant myrosinase", "setting": "[1]", "value": "effectively inhibited"},
      {"measurement": "inhibition of aphid myrosinase", "setting": "[2]", "value": "effectively inhibited"}
    ]},
    {"molecule": "O[C@H]1[C@H](O)[C@@H](O)CN2CC[C@H](O)[C@H]12", "note": "[castanospermine]", "values": [
      {"measurement": "inhibition of plant myrosinase", "setting": "[1]", "value": "effectively inhibited"},
      {"measurement": "inhibition of aphid myrosinase", "setting": "[2]", "value": "effectively inhibited"}
    ]},
    {"molecule": "B1", "values": [
      {"measurement": "Specific activity", "setting": "[7]", "value": 20.000, "unit": "µmol/mg/min"}
    ]}
  ]
}
